Data: patent publication US8927717B1, “Thiochromeno[2,3-c]quinolin-12-one derivatives, preparation method and application thereof” (National Defense Medical Center, priority 2014, dated 2015)

Assays:
Type in all cases: cell-based
NCI-H226 = settings: NCI-H226; 10^−5 molar
KM12 = test: cells; settings: KM12; 10^−5 molar
SF-268 = settings: SF-268; 10^−5 molar
A498 = settings: A498; 10^−5 molar
MDA-MB-435 = settings: MDA-MB-435; 10^−5 molar
NCI-H522 = settings: NCI-H522; 10^−5 molar
HCT-15 = settings: HCT-15; 10^−5 molar
NCI-H23 = settings: NCI-H23; 10^−5 molar
CCRF-CEM = settings: CCRF-CEM; 10^−5 molar
UO-31 = settings: UO-31; 10^−5 molar
SR = settings: SR; 10^−5 molar
SK-MEL-5 = settings: SK-MEL-5; 10^−5 molar
MOLT-4 = settings: MOLT-4; 10^−5 molar
MDA-MB-486 = settings: MDA-MB-486; 10^−5 molar
OVCAR-8 = settings: OVCAR-8; 10^−5 molar
RPMI-8226 = settings: RPMI-8226; 10^−5 molar
OVCAR-5 = settings: OVCAR-5; 10^−5 molar
U251 = settings: U251; 10^−5 molar
SF-295 = settings: SF-295; 10^−5 molar
60 cancer cell lines = test: NCI 60-cell screen, SRB, whole panel (mean, delta, range); settings: 10^−5 molar
TK-10 = settings: TK-10; 10^−5 molar
LOX IMVI = settings: LOX IMVI; 10^−5 molar
UACC-62 = settings: UACC-62; 10^−5 molar
786-0 = settings: 786-0; 10^−5 molar
SK-OV-3 = settings: SK-OV-3; 10^−5 molar
SK-MEL-28 = settings: SK-MEL-28; 10^−5 molar
BT-549 = settings: BT-549; 10^−5 molar
NCI/ADR-RES = settings: NCI/ADR-RES; 10^−5 molar
RXF 393 = settings: RXF 393; 10^−5 molar
SN12C = settings: SN12C; 10^−5 molar
DU-145 = settings: DU-145; 10^−5 molar
PC-3 = settings: PC-3; 10^−5 molar
HCT-116 = settings: HCT-116; 10^−5 molar
MCF7 = settings: MCF7; 10^−5 molar
MDA-MB-231/ATCC = settings: MDA-MB-231/ATCC; 10^−5 molar
MALME-3M = settings: MALME-3M; 10^−5 molar
A549/ATCC = settings: A549/ATCC; 10^−5 molar
T-47D = settings: T-47D; 10^−5 molar
K-562 = settings: K-562; 10^−5 molar

## O=c1c2cc(Cl)ccc2sc2c(NCc3ccc4c(c3)OCO4)nc3ccccc3c12 [Compound N27, 6-((Benzo[d][1,3]dioxol-5-ylmethyl)amino)-10-chloro-12H-thiochromeno[2,3-c]quinolin-12-one]
NCI-H226
  Growth percent: 53.50%
KM12
  Growth percent: 87.96%
SF-268
  Growth percent: 93.24%
A498
  Growth percent: 75.91%
MDA-MB-435
  Growth percent: 91.64%
NCI-H522
  Growth percent: 78.43%
HCT-15
  Growth percent: 77.41%
NCI-H23
  Growth percent: 79.93%
CCRF-CEM
  Growth percent: 88.86%
UO-31
  Growth percent: 80.98%
SR
  Growth percent: 79.57%
SK-MEL-5
  Growth percent: 79.86%
MOLT-4
  Growth percent: 87.55%
MDA-MB-486
  Growth percent: 60.47%
OVCAR-8
  Growth percent: 79.45%
RPMI-8226
  Growth percent: 96.35%
OVCAR-5
  Growth percent: 84.38%
U251
  Growth percent: 81.03%
SF-295
  Growth percent: 94.39%
60 cancer cell lines; delta over panel
  Growth percent, Delta: 36.65%
60 cancer cell lines; mean over panel
  Growth percent, Mean: 81.18%
60 cancer cell lines; range over panel
  Growth percent, Range: 73.26%
TK-10
  Growth percent: 116.79%
LOX IMVI
  Growth percent: 78.69%
UACC-62
  Growth percent: 72.96%
786-0
  Growth percent: 95.83%
SK-OV-3
  Growth percent: 82.87%
SK-MEL-28
  Growth percent: 88.24%
BT-549
  Growth percent: 111.06%
NCI/ADR-RES
  Growth percent: 91.11%
RXF 393
  Growth percent: 74.20%
SN12C
  Growth percent: 85.53%
DU-145
  Growth percent: 72.44%
PC-3
  Growth percent: 78.54%
HCT-116
  Growth percent: 69.98%
MCF7
  Growth percent: 43.53%
MDA-MB-231/ATCC
  Growth percent: 54.65%
MALME-3M
  Growth percent: 81.64%
A549/ATCC
  Growth percent: 104.74%
T-47D
  Growth percent: 74.41%
K-562
  Growth percent: 80.37%
